The target of assay [1] is human Adenosine A1 receptor (Homo sapiens (Human), UniProt P30542). In words: Adenosine receptor TR-FRET binding assay (A1). The note with it: inhibition of binding of 100 nM CA200645, CHO cell membranes. In outline:
(§1)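 Competition binding measured by TR-FRET between terbium-labelled receptors (CHO membranes, human) and fluorescent XAC, CA200645, used at 30 nM for A2b and 100 nM elsewhere. Room temperature, 2 h. Reported as Ki (Cheng–Prusoff).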
For orientation: Time-resolved FRET reads energy transfer from a long-lived donor to a nearby acceptor.

Assay [2] deals with human PBMCs. As to the kind of experiment: CD3/CD28 stimulated IL-2 release NECA reversal assay in human PBMCs. The format is cell-based. The note with it: PBMC, 1 uM NECA, 24 hours, IL-2 in culture supernatant. In a few lines: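 PBMCs from citrated healthy-donor blood plated at 50,000 cells/well on 1 ug/ml CD3 antibody with 1 ug/ml CD28 antibody, 1 uM NECA and 0.003-10 μM antagonist (final), 24 h at 37° C. Supernatant IL-2 measured by MSD immunoassay; % inhibition set against no-NECA control wells as 100%.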

Assay [3] deals with human Adenosine A2a receptor (Homo sapiens (Human), UniProt P29274). As to the kind of experiment: Adenosine receptor TR-FRET binding assay (A2a). The note with it: inhibition of binding of 100 nM CA200645, CHO cell membranes. In a few lines:
as §1

In assay [4] the target is human Adenosine A2b receptor (Homo sapiens (Human), UniProt P29275). In words: Adenosine receptor TR-FRET binding assay (A2b). The note with it: TR-FRET, inhibition of binding of 30 nM CA200645, CHO cell membranes. In a few lines: as §1
human Adenosine A2b receptor, sequence (P29275 whole entry): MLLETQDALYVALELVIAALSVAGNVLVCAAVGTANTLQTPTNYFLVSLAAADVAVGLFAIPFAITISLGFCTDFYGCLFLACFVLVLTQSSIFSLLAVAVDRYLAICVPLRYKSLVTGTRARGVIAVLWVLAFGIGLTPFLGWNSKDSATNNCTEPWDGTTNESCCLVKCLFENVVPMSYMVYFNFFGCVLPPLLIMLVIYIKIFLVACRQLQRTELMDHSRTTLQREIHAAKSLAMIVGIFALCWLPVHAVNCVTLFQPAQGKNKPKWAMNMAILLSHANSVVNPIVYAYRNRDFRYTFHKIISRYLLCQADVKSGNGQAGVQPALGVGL
The target of assay [5] is human Adenosine A3 receptor (Homo sapiens (Human), UniProt P0DMS8). As to the kind of experiment: Adenosine receptor TR-FRET binding assay (A3). Conditions: inhibition of binding of 100 nM CA200645, CHO cell membranes. In outline:
as §1

For assay [6], the system named is CD8+T cells in human whole blood. As to the kind of experiment: Measurement of pCREB in CD8+T cells in human whole blood. The note with it: 3 μM NECA, rolipram. Format: cell-based. In a few lines: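 Heparinised human whole blood pre-incubated 20 min at 37 °C with serially diluted A2a antagonists plus rolipram, then stimulated 60 min with 3 μM NECA (final). After fixation and red-cell lysis, white cells were permeabilized and stained for phospho-CREB and CD8; pCREB in CD8+ T cells measured by flow cytometry.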

The source of these data is US20230293517A1, “ANTAGONIST COMPOUNDS” (AdoRx Therapeutics Limited, priority 2020, published 2023).

human Adenosine A2a receptor, sequence (P29274 whole entry): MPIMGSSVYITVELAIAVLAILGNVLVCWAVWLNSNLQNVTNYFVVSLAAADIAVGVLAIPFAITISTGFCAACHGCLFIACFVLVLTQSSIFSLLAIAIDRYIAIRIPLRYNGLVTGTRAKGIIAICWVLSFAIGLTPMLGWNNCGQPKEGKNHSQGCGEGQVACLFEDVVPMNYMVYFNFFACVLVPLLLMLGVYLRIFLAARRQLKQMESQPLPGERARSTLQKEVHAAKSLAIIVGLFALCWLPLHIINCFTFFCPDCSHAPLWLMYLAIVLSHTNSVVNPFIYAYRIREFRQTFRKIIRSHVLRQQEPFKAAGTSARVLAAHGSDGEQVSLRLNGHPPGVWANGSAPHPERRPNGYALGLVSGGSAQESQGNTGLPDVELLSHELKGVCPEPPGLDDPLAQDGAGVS
human Adenosine A1 receptor, sequence (P30542 whole entry): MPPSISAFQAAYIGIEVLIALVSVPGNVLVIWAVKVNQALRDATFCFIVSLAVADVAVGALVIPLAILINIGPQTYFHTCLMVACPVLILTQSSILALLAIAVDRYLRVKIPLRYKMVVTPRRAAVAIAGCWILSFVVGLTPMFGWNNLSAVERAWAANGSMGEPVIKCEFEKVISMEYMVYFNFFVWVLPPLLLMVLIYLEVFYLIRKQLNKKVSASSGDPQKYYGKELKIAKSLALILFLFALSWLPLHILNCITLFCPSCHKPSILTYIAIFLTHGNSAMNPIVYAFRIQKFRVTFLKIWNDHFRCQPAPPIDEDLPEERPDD
human Adenosine A3 receptor, sequence (P0DMS8 whole entry): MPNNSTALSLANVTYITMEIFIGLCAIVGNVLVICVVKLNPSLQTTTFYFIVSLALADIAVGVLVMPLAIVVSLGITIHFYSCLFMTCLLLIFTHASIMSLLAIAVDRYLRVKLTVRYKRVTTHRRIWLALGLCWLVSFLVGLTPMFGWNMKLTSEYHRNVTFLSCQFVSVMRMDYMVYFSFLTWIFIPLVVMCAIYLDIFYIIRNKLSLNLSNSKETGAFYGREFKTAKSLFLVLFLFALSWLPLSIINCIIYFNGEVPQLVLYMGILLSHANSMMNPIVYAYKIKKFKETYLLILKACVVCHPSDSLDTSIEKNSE

Turning to `Cc1cc(-c2sc(NC(=O)N3CCC(C#N)(C(C)(C)O)CC3)nc2-c2cccc(C#N)c2)cc(C)n1` [Example 6.41, 4-Cyano-N-[4-(3-cyanophenyl)-5-(2,6-dimethyl-4-pyridyl)thiazol-2-yl]-4-(1-hydroxy-1-methyl-ethyl)piperidine-1-carboxamide], the inhibition constant Ki (in general, the dissociation constant of the complex between target and ligand, obtained from inhibition or displacement) is 111 nM in assay [1], 0.18 nM in assay [3], 1.3 nM in assay [4] and 235 nM in assay [5]. In addition, the values for the 50% inhibitory concentration (IC50) in assay [2] and in assay [6] were 2.7 nM and 120 nM, respectively.

Regarding `Cc1cc(-c2sc(NC(=O)N3CCN4C(=O)NCCC4C3)nc2-c2cccc(C#N)c2)cc(C)n1` (stereo not drawn) [Example 6.42, N-[4-(3-Cyanophenyl)-5-(2,6-dimethyl-4-pyridyl)thiazol-2-yl]-6-oxo-3,4,7,8,9,9a-hexahydro-1H-pyrazino[1,2-c]pyrimidine-2-carboxamide], the Ki in assay [1] worked out at 44 nM; in assay [3], 0.39 nM; in assay [4], 9 nM; in assay [5], 438 nM. For the same compound, the results for the half-inhibitory concentration (IC50) in assay [2] and in assay [6] were 5 nM and 130 nM, respectively.

As to `Cc1cc(-c2sc(NC(=O)N3CC4(C3)CC(C)(O)C4)nc2-c2cccc(C#N)c2)cc(C)n1` [Example 6.44, N-[4-(3-Cyanophenyl)-5-(2,6-dimethyl-4-pyridyl)thiazol-2-yl]-6-hydroxy-6-methyl-2-azaspiro[3.3]heptane-2-carboxamide], the inhibition constant Ki stood at 151 nM in assay [1], 0.4 nM in assay [3], 2.4 nM in assay [4] and 299 nM in assay [5]. Further, the results for the IC50 in assay [2] and in assay [6] were 3.1 nM and 100 nM, respectively.

As for `Cc1cc(-c2sc(NC(=O)N3CCC4(CCC(=O)N4)CC3)nc2-c2cccc(C#N)c2)cc(C)n1` [Example 6.45, N-[4-(3-Cyanophenyl)-5-(2,6-dimethyl-4-pyridyl)thiazol-2-yl]-2-oxo-1,8-diazaspiro[4.5]decane-8-carboxamide], the Ki in assay [1] worked out at 104 nM; in assay [3], 0.44 nM; in assay [4], 2 nM; in assay [5], 183 nM. Further, the half-inhibitory concentration (IC50) – broadly, the concentration needed to halve the response being measured – turned out to be 9.4 nM in assay [2] and 310 nM in assay [6].

As to `Cc1cc(-c2sc(NC(=O)N3CC[C@H](C(C)(C)O)C3)nc2-c2cccc(C#N)c2)cc(C)n1` [Example 6.48, (3S)-N-[4-(3-Cyanophenyl)-5-(2,6-dimethyl-4-pyridyl)thiazol-2-yl]-3-(1-hydroxy-1-methyl-ethyl)pyrrolidine-1-carboxamide], the Ki in assay [1] worked out at 96 nM; in assay [3], 1.11 nM; in assay [4] it was 1.7 nM; in assay [5], 245 nM. Further, the half-inhibitory concentration (IC50) in assay [2] came out at 3.7 nM; in assay [6], 140 nM.

For `Cc1cc(-c2sc(NC(=O)N3CCC4(CCOC(=O)N4)CC3)nc2-c2cccc(C#N)c2)cc(C)n1` [Example 6.50, N-[4-(3-Cyanophenyl)-5-(2,6-dimethyl-4-pyridyl)thiazol-2-yl]-2-oxo-3-oxa-1,9-diazaspiro[5.5]undecane-9-carboxamide], the inhibitory constant (Ki) was determined as 136 nM in assay [1], 1.63 nM in assay [3], 3.4 nM in assay [4] and 472 nM in assay [5]. In addition, the concentration for half-maximal inhibition (IC50) worked out at 3.6 nM in assay [2] and 190 nM in assay [6].

Regarding `Cc1cc(-c2sc(NC(=O)N3CC4(CCNC4=O)C3)nc2-c2cccc(C#N)c2)cc(C)n1` [Example 6.59, N-[4-(3-Cyanophenyl)-5-(2,6-dimethyl-4-pyridyl)thiazol-2-yl]-5-oxo-2,6-diazaspiro[3.4]octane-2-carboxamide], the inhibitory constant (Ki) in assay [1] amounted to 128 nM; in assay [3], 1.47 nM; in assay [4], 2.2 nM; in assay [5], 184 nM. In addition, the values for the IC50 in assay [2] and in assay [6] were 5.9 nM and 100 nM, respectively.

Take `Cc1cc(-c2sc(NC(=O)N3CCN(C4COC4)CC3)nc2-c2cccc(C#N)c2)cc(C(F)(F)F)n1` [Example 6.61, N-[4-(3-Cyanophenyl)-5-[2-methyl-6-(trifluoromethyl)-4-pyridyl]thiazol-2-yl]-4-(oxetan-3-yl)piperazine-1-carboxamide]: the Ki in assay [1] is 112 nM; in assay [3], 1.52 nM; in assay [4], 3.2 nM; in assay [5], 57 nM. Besides, the IC50 worked out at 17.2 nM in assay [2] and 350 nM in assay [6].

Take `Cc1cc(-c2sc(NC(=O)N3CC(C#N)(CO)C3)nc2-c2cccc(C#N)c2)cc(C)n1` [Example 6.64, 3-Cyano-N-[4-(3-cyanophenyl)-5-(2,6-dimethyl-4-pyridyl)thiazol-2-yl]-3-(hydroxymethyl)azetidine-1-carboxamide]: the Ki in assay [1] turned out to be 27 nM; in assay [3] it was 0.14 nM; in assay [4], 1.4 nM; in assay [5], 235 nM. Moreover, the 50% inhibitory concentration (IC50) in assay [2] came to 1.1 nM; in assay [6], 10 nM.

As for `Cc1cc(-c2sc(NC(=O)N3CCN[C@H](C(C)(C)O)C3)nc2-c2cccc(C#N)c2)cc(C)n1` [Example 6.75, (3S)-N-[4-(3-Cyanophenyl)-5-(2,6-dimethyl-4-pyridyl)thiazol-2-yl]-3-(1-hydroxy-1-methyl-ethyl)piperazine-1-carboxamide], the Ki in assay [1] worked out at 99 nM; in assay [3], 0.81 nM; in assay [4] it was 4.8 nM; in assay [5], 361 nM. Besides, the figures for the IC50 in assay [2] and in assay [6] were 5.9 nM and 180 nM, respectively.

Regarding `Cc1cc(-c2sc(NC(=O)N3CCOC[C@H]3CO)nc2-c2cccc(C#N)c2)cc(C)n1` [Example 6.88, (3R)-N-[4-(3-Cyanophenyl)-5-(2,6-dimethyl-4-pyridyl)thiazol-2-yl]-3-(hydroxymethyl)morpholine-4-carboxamide], the Ki came to 65 nM in assay [1], 1.9 nM in assay [3], 8 nM in assay [4] and 385 nM in assay [5]. The IC50 in assay [2] was 7.8 nM; in assay [6] it was 480 nM.

With `Cc1cc(-c2sc(NC(=O)N3CCC4(CCC(=O)N4C)CC3)nc2-c2cccc(C#N)c2)cc(C)n1` [Example 6.94, N-[4-(3-Cyanophenyl)-5-(2,6-dimethyl-4-pyridyl)thiazol-2-yl]-1-methyl-2-oxo-1,8-diazaspiro[4.5]decane-8-carboxamide], the inhibition constant (Ki) in assay [1] was found to be 407 nM; in assay [3] it was 5.63 nM; in assay [4], 11.3 nM; in assay [5] it was 719 nM. Also, the values for the IC50 in assay [2] and in assay [6] were 10.5 nM and 190 nM, respectively.

For the compound `Cc1cc(-c2sc(NC(=O)N3CCNCC3)nc2-c2cccc(C#N)c2)cc(C)n1` [Example 7, N-[4-(3-Cyanophenyl)-5-(2,6-dimethyl-4-pyridyl)thiazol-2-yl]piperazine-1-carboxamide], the inhibition constant (Ki) in assay [1] worked out at 42 nM; in assay [3], 2.81 nM; in assay [4], 11.1 nM; in assay [5], 304 nM. For the same compound, the 50% inhibitory concentration (IC50) in assay [2] was 16 nM; in assay [6] it was 580 nM.

As to `Cc1cc(-c2sc(NC(=O)N3CCN[C@H](C)C3)nc2-c2cccc(C#N)c2)cc(C)n1` [Example 7.1, (3R)—N-[4-(3-Cyanophenyl)-5-(2,6-dimethyl-4-pyridyl)thiazol-2-yl]-3-methyl-piperazine-1-carboxamide], the inhibition constant Ki was found to be 47 nM in assay [1], 0.99 nM in assay [3], 7.6 nM in assay [4] and 418 nM in assay [5]. In addition, the IC50 in assay [2] amounted to 20.5 nM; in assay [6], 650 nM.

Take `Cc1cc(-c2sc(NC(=O)N3CC[C@@H](C(C)(C)O)C3)nc2-c2cccc(C#N)c2)cc(CO)n1` [Example 9.2]: the inhibition constant (Ki) in assay [1] was 102 nM; in assay [3], 0.79 nM; in assay [4], 5.3 nM; in assay [5], 772 nM. Also, the IC50 was determined as 2.7 nM in assay [2] and 20 nM in assay [6].

Regarding `Cc1cc(-c2sc(NC(=O)N3CCC(C#N)(CO)CC3)nc2-c2cccc(C#N)c2)cc(CO)n1` [Example 9.7], the inhibition constant Ki worked out at 68 nM in assay [1], 0.42 nM in assay [3], 3.2 nM in assay [4] and 742 nM in assay [5]. Also, the IC50 worked out at 1 nM in assay [2] and 10 nM in assay [6].

Take `COC1(C#N)CCN(C(=O)Nc2nc(-c3cccc(C#N)c3)c(-c3cc(C)nc(CO)c3)s2)CC1` [Example 9.9]: the Ki was determined as 48 nM in assay [1], 0.31 nM in assay [3], 3.1 nM in assay [4] and 491 nM in assay [5]. The figures for the IC50 in assay [2] and in assay [6] were 1.3 nM and 20 nM, respectively.

Consider `Cc1cc(-c2sc(NC(=O)N3CC[S+]([O-])CC3)nc2-c2cccc(C#N)c2)c(F)c(C)n1` [Example 10, N-[4-(3-Cyanophenyl)-5-(3-fluoro-2,6-dimethyl-4-pyridyl)thiazol-2-yl]-1-oxo-1,4-thiazinane-4-carboxamide], for which the inhibitory constant (Ki) was found to be 43 nM in assay [1], 1.19 nM in assay [3], 1.4 nM in assay [4] and 283 nM in assay [5]. Besides, the results for the IC50 in assay [2] and in assay [6] were 24.7 nM and 1060 nM, respectively.
